Data published in the CheMixHub ionic liquid set.
± gives the uncertainty stated by the source.

Experiment: xn = mol fraction of the nth substance listed
Details: for viscosity: 101.33 kPa, x1 = 0.5; for electrical conductivity: 101 kPa

Compound: CCCC[P+](CCCC)(CCCC)CCCC.CS(=O)(=O)[O-] + O=S1(=O)CCCC1
- viscosity (303.15 K): 136 ± 30 mPa·s
- viscosity (313.15 K): 84 ± 17 mPa·s
- viscosity (323.15 K): 50 ± 10 mPa·s
- viscosity (333.15 K): 34.6 ± 7 mPa·s
- viscosity (343.25 K): 24.6 ± 5 mPa·s
- viscosity (353.25 K): 18.7 ± 3.8 mPa·s

Compound: CCCC[n+]1ccn(C)c1.N#C[N-]C#N + O=S(=O)([N-]S(=O)(=O)C(F)(F)F)C(F)(F)F.[Li+]
- electrical conductivity (288.15 K, x1 = 0.9103): 0.381 ± 0.038 S/m
- electrical conductivity (288.15 K, x1 = 0.942): 0.469 ± 0.047 S/m
- electrical conductivity (288.15 K, x1 = 0.9606): 0.538 ± 0.054 S/m
- electrical conductivity (288.15 K, x1 = 0.9799): 0.595 ± 0.06 S/m
- electrical conductivity (288.15 K, x1 = 1): 0.596 ± 0.06 S/m
- electrical conductivity (298.15 K, x1 = 0.8953): 0.519 ± 0.052 S/m
- electrical conductivity (298.15 K, x1 = 0.9103): 0.613 ± 0.062 S/m
- electrical conductivity (298.15 K, x1 = 0.942): 0.743 ± 0.075 S/m
- electrical conductivity (298.15 K, x1 = 0.9606): 0.848 ± 0.085 S/m
- electrical conductivity (298.15 K, x1 = 0.9799): 0.919 ± 0.092 S/m
- electrical conductivity (298.15 K, x1 = 1): 0.925 ± 0.093 S/m
- electrical conductivity (333.15 K, x1 = 0.8953): 1.67 ± 0.17 S/m
- electrical conductivity (333.15 K, x1 = 0.9103): 1.88 ± 0.19 S/m
- electrical conductivity (333.15 K, x1 = 0.942): 2.17 ± 0.22 S/m
- electrical conductivity (333.15 K, x1 = 0.9606): 2.46 ± 0.25 S/m
- electrical conductivity (333.15 K, x1 = 0.9799): 2.56 ± 0.26 S/m
- electrical conductivity (333.15 K, x1 = 1): 2.77 ± 0.28 S/m

Compound: CCCC[n+]1ccn(C)c1.N#C[N-]C#N + O=S(=O)([O-])C(F)(F)F.[Li+]
- electrical conductivity (288.15 K, x1 = 1): 0.596 ± 0.06 S/m
- electrical conductivity (298.15 K, x1 = 1): 0.925 ± 0.093 S/m
- electrical conductivity (333.15 K, x1 = 1): 2.77 ± 0.28 S/m

Compound: CCCC[n+]1ccn(C)c1.N#C[N-]C#N + O=[N+]([O-])[O-].[Li+]
- electrical conductivity (288.15 K, x1 = 0.8104): 0.155 ± 0.016 S/m
- electrical conductivity (288.15 K, x1 = 0.859): 0.246 ± 0.025 S/m
- electrical conductivity (288.15 K, x1 = 0.9137): 0.377 ± 0.038 S/m
- electrical conductivity (288.15 K, x1 = 0.9799): 0.599 ± 0.06 S/m
- electrical conductivity (288.15 K, x1 = 1): 0.596 ± 0.06 S/m
- electrical conductivity (298.15 K, x1 = 0.7634): 0.193 ± 0.02 S/m
- electrical conductivity (298.15 K, x1 = 0.8104): 0.272 ± 0.028 S/m
- electrical conductivity (298.15 K, x1 = 0.859): 0.417 ± 0.042 S/m
- electrical conductivity (298.15 K, x1 = 0.9137): 0.612 ± 0.062 S/m
- electrical conductivity (298.15 K, x1 = 0.9799): 0.924 ± 0.093 S/m
- electrical conductivity (298.15 K, x1 = 1): 0.925 ± 0.093 S/m
- electrical conductivity (333.15 K, x1 = 0.7634): 0.902 ± 0.09 S/m
- electrical conductivity (333.15 K, x1 = 0.8104): 1.17 ± 0.12 S/m
- electrical conductivity (333.15 K, x1 = 0.859): 1.47 ± 0.15 S/m
- electrical conductivity (333.15 K, x1 = 0.9137): 1.95 ± 0.2 S/m
- electrical conductivity (333.15 K, x1 = 0.9799): 2.6 ± 0.26 S/m
- electrical conductivity (333.15 K, x1 = 1): 2.77 ± 0.28 S/m
